According to patent publication US20190211317A1, “PEPTIDES AND NANOPARTICLES FOR INTRACELLULAR DELIVERY OF GENOME-EDITING MOLECULES” (Aadigen, LLC, priority 2016, published 2019):

What was measured:
[1] = tested on: EGFP-U2OS, EGFP-HEK, EGFP-JURKAT cells; experiment: Toxicity of CPP/CAS9/gRNA complexes (MTT assay); assay type: cell-based; conditions: three cell lines; concentrations up to 100 nM; 24 h
Description: The robust EGFP disruption observed in the three cell lines was found not to be the result of cellular toxicity. […] A total of 30,000 cells seeded in 24-well plates the day prior to transfection were incubated with increasing concentrations of CPP/CAS9/gRNA (complexed at a 10:1 or 20:1 molar ratio of CPP to preloaded CAS9/gRNA complex) ranging from 1 to 200 nM for 30 min prior to addition of medium to reach a final 10% concentration of FCS. Cytotoxic response was measured 24 hours later by colorimetric MTT assay (Sigma, Germany). For MTT assay, cell culture medium was removed and replaced with PBS containing 2.5 mg/ml MTT for 4 hours. Results correspond to the average of 3 separate experiments. […] Viability was reduced by less than 10% at 200 nM. In contrast, at […] for Lipofectamine 2000 or RNAiMAX, between 60-70% and 20-25% cell death was observed, depending on cell line. Moreover, both lipid methods appeared to be highly toxic on JURKAT cells, inducing 75% (lipofectamine 2000) or 45% (RNAiMAX) cell death.

[2] = Particle size, polydispersity and zeta potential with different cargoes (Zetasizer NANO ZS P); assay type: physicochemical; conditions: 20:1
Description: The CPP/CAS9-protein, CPP/CAS9-protein/sgRNA, CPP/CAS9-mRNA, CPP/CAS-mRNA/sgRNA particles were characterized; the mean size, polydispersity, and zeta potential were measured with a Zetasizer NANO ZS P apparatus (Malvern Ltd).
The mean size and the polydispersity of the CCP/cargo complexes were determined at 25° C. for 5 min per measurement and zeta potential was measured with a Zetasizer NANO ZS P apparatus (Malvern Ltd).

For `CC(C)C[C@H](NC(=O)[C@H](CCCNC(=N)N)NC(=O)[C@H](Cc1c[nH]c2ccccc12)NC(=O)[C@H](CCCNC(=N)N)NC(=O)[C@H](Cc1c[nH]c2ccccc12)NC(=O)CNC(=O)[C@H](C)NC(=O)[C@H](CO)NC(=O)[C@H](CCCNC(=N)N)NC(=O)[C@H](Cc1c[nH]c2ccccc12)NC(=O)[C@H](CCCCN)NC(=O)CCN)C(=O)N[C@@H](Cc1c[nH]c2ccccc12)C(=O)N[C@@H](CCCNC(=N)N)C(=O)N[C@H](C(=O)N[C@@H](CCCNC(=N)N)C(=O)N[C@@H](CO)C(=O)N[C@@H](Cc1c[nH]c2ccccc12)C(=O)N[C@@H](CO)C(=O)N[C@@H](CCCNC(=N)N)C(=O)O)C(C)C` [ADGN-100a], the toxicity [1] was “no toxicity”, the “formation of stable nanoparticles” value ([2]; with CAS9-mRNA and CAS9-mRNA/gRNA complex) was “able to form stable nanoparticles” and the Mean diameter ([2]; with CAS9-mRNA and CAS9-mRNA/gRNA) was “about 75 nm”. The “formation of stable nanoparticles” value ([2]; with CAS9-protein and CAS9-protein/gRNA complex) was “able to form stable nanoparticles” and the Mean diameter ([2]; with CAS9-protein and CAS9-protein/gRNA) was “about 100 nm”.
